Measured values taken from patent publication US11993591B2, “Chromen-4-one derivatives for the treatment and prophylaxis of hepatitis B virus disease” (Hoffmann-La Roche Inc., priority 2018, dated 2024).

Assays:
[1] = system: HBV cccDNA (HBeAg level) in HepDES19 cells; assay: Engineered HepDES19 primary screen assay (HBeAg as surrogate marker for cccDNA); format: cell-based; conditions: Hepatitis B virus, HepDES19, 120 h
Source text: The assay was employed to screen for novel cccDNA inhibitors. HepDES19 is a cccDNA-producing cell line. In this cell line, HBeAg in the cell culture supernatant as surrogate marker, as HBeAg production depends on cccDNA level and activity. HepDES19 is an engineered cell line which contains a 1.1 unit length HBV genome, and pgRNA transcription from the transgene is controlled by Tetracycline (Tet). In the absence of Tet, pgRNA transcription will be induced, but HBV e antigen (HBeAg) could not be produced from this pgRNA due to very short leader sequence before the HBeAg start codon and the start codon is disrupted. Only after cccDNA is formed, the missing leader sequence and start codon mutation would be restored from the 3′-terminal redundancy of pgRNA, and then HBeAg could be synthesized. Therefore, HBeAg could be used as a surrogate marker for cccDNA (Zhou, T. et al., Antiviral Res. (2006), 72(2), 116-124; Guo, H. et al., J. Virol. (2007), 81(22), 12472-12484).
HepDES19 cells were seeded at 2×10^6 cells per T150 flask and cultured with the culture medium (Dulbecco's Modified Eagle Medium: Nutrient Mixture F-12 [DMEM-F12, Gibco Cat. 11320-82], 10% Fetal Bovine Serum [FBS, Clontech Cat. 631101], 0.1 mM Non-Essential Amino Acids Solution [NEAA, Gibco Cat. 11140-050], 50 μg/mL Penicillin-Streptomycin [PS, Invitrogen Cat. 15140-163], 500 μg/mL Geneticin [G418, Invitrogen Cat. 10131-027]) containing 3 μg/mL Tet (Sigma, Cat. 87128) for 5 days. Cells were then seeded at 4×10^6 cells per T150 in the same culture medium as described above in the absence of Tet for 8 days. Cells were then harvested and frozen at density of 2×10^6 cells per mL. For compound testing, the frozen cells were thawed and seeded into 96-well plates at a density of 6×10^4 cells per well. At 24 hours after seeding, half log serial dilutions of compounds made with Dimethyl sulfoxide (DMSO, Sigma, Cat. D2650) were further diluted with the same culture medium as described above before they were added to the cells to reach desired final compound concentrations and 1% DMSO concentration. Plates were then incubated at 37° C. for another 5 days before measurement of HBeAg level and cell viability. Intracellular HBeAg level were measured with enzyme-linked immunosorbent assay (ELISA) kit (Shanghai Kehua Diagnostic Medical Products Co., Ltd). Cell viability was assessed using Cell Counting Kit-8 (Donjindo, Cat. CK04-20). IC50 values were derived from the dose-response curve using 4 parameter logistic curve fit method.
The compounds of the present invention were tested for their capacity to inhibit extracellular HBeAg level as described herein.

[2] = system: HBV (extracellular HBsAg) in primary human hepatocytes; assay: Cryopreserved Primary Human Hepatocytes (PHH) HBV infection assay; format: cell-based; conditions: Hepatitis B virus, Hepatocyte, 216 h; extracellular HBsAg (CLIA), HBV-infected cryopreserved PHH, 9 days post-compound treatment
Procedure: This assay is used to confirm the anti-HBV effect of the compounds in HBV PHH infection assay. Cryopreserved PHH (BioreclamationIVT, Lot YJM) was thawed at 37° C. and gently transferred into pre-warmed InVitroGRO HT medium (BioreclamationIVT, Cat. S03317).
The mixture was centrifuged at 70 relative centrifugal force (RCF) for 3 mins at RT, and the supernatant was discarded. Pre-warmed InVitroGRO CP medium (BioreclamationIVT, Cat #S03316) was added to the cell pellet to gently re-suspend cells. The cells were seeded at the density of 5.8×10^4 cells per well to collagen I coated 96-well plate (Gibco, Cat. A1142803) with the InVitroGRO CP medium. All plates were incubated at 37° C. with 5% CO2 and 85% humidity.
At 20 hours after plating, the medium was changed to PHH culture medium (Dulbecco's Modified Eagle Medium (DMEM)/F12 (1:1) (Gibco, Cat. 11320-033), 10% fetal bovine serum (Gibco Cat. 10099141), 100 U/mL penicillin, 100 μg/mL streptomycin (Gibco, Cat. 151401-122), […] (Invitrogen Cat. PHG0311L), 20 ng/mL dexamethasone (Sigma, Cat. D4902) and 250 ng/mL human recombinant insulin (Gibco, Cat. 12585-014)). And the cells were incubated at 37° C. with 5% CO2 and 85% humidity for 4 hours. The medium was then changed to pre-warmed PHH culture medium containing 4% polyethylene glycol (PEG) MW8000 (Sigma, Cat. P1458-50ML) and 1% DMSO (Sigma, Cat. D2650). 5.8×10^6 genomic equivalents of HBV were added into the medium.
At 24 hours post-infection, the cells were gently washed with PBS and refreshed with PHH culture medium supplemented with 1% DMSO, and 0.25 mg/mL Matrix gel (Corning, Cat. 356237) at 200 μL per well. All plates were immediately placed in at 37° C. CO2 incubator. 24 hours later, serial dilutions of compounds made with DMSO were further diluted with the same culture medium (PHH culture medium supplemented with 1% DMSO and 0.25 mg/mL Matrix gel as described above) before they were added to the cells to reach desired final compound concentrations and 1% DMSO concentration. The medium containing the compounds were refreshed every three days.
At 9 days post-compound treatment, extracellular HBsAg level were measured with Chemiluminescence Immuno Assay (CLIA) kit (Autobio, HBsAg Quantitative CLIA). Extracellular HBV DNA was extracted by MagNA Pure 96 system (Roche) and then determined by quantitative PCR with the following primers and probe: […]
HBsAg IC50 and HBV DNA IC50 values were derived from the dose-response curve using 4 parameter logistic curve fit method.

Row | SMILES | IC50 [1] [µM] | IC50 [2] [µM]
1 | O=C(c1cc(=O)c2cccc(Cl)c2o1)N1Cc2ccc(Br)cc2C1 [Example 4, 2-(5-bromoisoindoline-2-carbonyl)-8-chloro-chromen-4-one] | 3.6 | 6.58
2 | O=C(Nc1ccc(Cl)cc1OC1CC(C(=O)O)C1)c1cc(=O)c2cccc(Cl)c2o1 (stereo not shown) [Example 7, 3-(5-chloro-2-(8-chloro-4-oxo-chromene-2-carboxamido)phenoxy)cyclobutane-1-carboxylic Acid] | 1.66 | 10
